The values that follow come from publication PMC4850841 (Journal of medicinal chemistry, 2013).

Where two headings read alike, the source gives them in different places.

For one series, the target named is GluN1/GluN2B (Rattus norvegicus, UniProt Q00960). In words: Two electrode voltage clamp recordings, Xenopus laevis oocytes. The format is cell-based. Conditions: 100 µM glutamate, 30 µM glycine.
For a further series, the target named is GluN1/GluN2A (Rattus norvegicus, UniProt Q00959). The description is as above. The class given is cell-based. The following applies: 100 µM glutamate, 30 µM glycine.
GluN1/GluN2A, sequence (Q00959 23-1464, other chains not shown): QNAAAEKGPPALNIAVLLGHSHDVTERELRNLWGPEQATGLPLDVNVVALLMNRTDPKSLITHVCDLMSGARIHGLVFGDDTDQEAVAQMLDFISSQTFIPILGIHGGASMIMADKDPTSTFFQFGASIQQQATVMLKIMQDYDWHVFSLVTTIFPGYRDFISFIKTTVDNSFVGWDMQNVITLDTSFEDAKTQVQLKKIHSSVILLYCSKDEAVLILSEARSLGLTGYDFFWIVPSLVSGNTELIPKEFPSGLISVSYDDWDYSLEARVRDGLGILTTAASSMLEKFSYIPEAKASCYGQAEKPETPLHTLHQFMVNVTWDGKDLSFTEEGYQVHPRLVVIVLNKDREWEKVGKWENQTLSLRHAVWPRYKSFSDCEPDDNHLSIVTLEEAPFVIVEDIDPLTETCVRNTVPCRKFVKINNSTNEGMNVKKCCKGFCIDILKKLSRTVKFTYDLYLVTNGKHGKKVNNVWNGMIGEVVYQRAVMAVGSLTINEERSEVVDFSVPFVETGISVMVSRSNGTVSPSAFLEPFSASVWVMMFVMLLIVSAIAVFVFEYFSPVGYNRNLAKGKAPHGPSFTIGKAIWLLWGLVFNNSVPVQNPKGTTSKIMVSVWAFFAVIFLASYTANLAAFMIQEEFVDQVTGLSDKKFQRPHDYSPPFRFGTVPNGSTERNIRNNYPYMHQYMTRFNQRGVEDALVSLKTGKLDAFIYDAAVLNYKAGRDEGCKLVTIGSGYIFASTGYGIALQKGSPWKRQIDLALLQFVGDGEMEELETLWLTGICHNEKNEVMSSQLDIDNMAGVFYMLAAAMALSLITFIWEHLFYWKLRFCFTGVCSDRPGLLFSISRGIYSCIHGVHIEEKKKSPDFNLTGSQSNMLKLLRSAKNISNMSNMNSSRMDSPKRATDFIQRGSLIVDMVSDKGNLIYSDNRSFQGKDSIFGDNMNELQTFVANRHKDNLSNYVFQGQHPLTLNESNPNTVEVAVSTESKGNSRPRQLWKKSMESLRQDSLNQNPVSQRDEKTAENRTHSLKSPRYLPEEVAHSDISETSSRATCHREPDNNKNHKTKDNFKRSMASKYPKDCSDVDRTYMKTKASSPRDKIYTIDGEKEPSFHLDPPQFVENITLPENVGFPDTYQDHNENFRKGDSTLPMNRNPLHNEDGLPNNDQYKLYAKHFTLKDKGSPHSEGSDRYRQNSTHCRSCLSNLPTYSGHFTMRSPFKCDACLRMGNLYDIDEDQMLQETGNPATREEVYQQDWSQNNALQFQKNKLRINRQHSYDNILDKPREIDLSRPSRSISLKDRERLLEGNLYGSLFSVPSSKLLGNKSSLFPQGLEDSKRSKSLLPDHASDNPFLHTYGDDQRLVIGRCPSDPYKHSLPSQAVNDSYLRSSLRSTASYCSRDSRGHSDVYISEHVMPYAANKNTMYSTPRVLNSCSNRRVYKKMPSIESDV
The target in the next series is GluA1 (Rattus norvegicus, UniProt P19490). The description is as above. The class given is cell-based. The following applies: co-applied with 100 µM glutamate.
GluA1, sequence (P19490 19-907): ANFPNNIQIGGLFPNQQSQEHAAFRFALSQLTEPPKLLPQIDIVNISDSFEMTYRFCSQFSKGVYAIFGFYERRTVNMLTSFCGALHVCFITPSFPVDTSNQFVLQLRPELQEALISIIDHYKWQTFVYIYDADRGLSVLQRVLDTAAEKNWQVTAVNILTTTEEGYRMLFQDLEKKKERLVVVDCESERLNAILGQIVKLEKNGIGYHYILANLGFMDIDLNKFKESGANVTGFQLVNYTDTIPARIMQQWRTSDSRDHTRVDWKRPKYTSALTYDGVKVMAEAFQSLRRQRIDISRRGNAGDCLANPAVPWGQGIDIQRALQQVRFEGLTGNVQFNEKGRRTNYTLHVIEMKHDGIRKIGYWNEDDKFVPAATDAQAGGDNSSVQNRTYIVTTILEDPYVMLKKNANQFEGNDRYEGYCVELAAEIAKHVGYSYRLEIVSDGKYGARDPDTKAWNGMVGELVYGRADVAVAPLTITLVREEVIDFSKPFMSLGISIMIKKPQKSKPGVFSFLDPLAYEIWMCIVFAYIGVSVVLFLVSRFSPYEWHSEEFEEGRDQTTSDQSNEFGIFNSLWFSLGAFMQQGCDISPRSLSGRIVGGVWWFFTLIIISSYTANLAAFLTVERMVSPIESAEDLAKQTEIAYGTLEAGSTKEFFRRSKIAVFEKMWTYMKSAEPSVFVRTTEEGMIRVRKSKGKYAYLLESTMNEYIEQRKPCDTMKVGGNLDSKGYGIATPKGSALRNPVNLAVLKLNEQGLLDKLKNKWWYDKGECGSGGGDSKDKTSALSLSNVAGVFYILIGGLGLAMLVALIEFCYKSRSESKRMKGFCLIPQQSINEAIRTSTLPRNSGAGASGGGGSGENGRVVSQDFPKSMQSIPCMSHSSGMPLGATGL
Series [1] deals with GluN2C/D-containing NMDA receptors. The experiment in a line: Potentiation of NMDA receptors, results stated jointly for both subtypes. The format is cell-based, rat. Conditions: for EC50: read-out: EC50, GluN2C/GluN2D stated jointly.
The next series deals with GluK2 (Rattus norvegicus, UniProt P42260). In words: Two electrode voltage clamp recordings, Xenopus laevis oocytes. The class given is cell-based. The following applies: co-applied with 100 µM glutamate. On the technique in general: In two-electrode clamp one electrode senses voltage and the other passes current.
GluK2, sequence (P42260 32-908): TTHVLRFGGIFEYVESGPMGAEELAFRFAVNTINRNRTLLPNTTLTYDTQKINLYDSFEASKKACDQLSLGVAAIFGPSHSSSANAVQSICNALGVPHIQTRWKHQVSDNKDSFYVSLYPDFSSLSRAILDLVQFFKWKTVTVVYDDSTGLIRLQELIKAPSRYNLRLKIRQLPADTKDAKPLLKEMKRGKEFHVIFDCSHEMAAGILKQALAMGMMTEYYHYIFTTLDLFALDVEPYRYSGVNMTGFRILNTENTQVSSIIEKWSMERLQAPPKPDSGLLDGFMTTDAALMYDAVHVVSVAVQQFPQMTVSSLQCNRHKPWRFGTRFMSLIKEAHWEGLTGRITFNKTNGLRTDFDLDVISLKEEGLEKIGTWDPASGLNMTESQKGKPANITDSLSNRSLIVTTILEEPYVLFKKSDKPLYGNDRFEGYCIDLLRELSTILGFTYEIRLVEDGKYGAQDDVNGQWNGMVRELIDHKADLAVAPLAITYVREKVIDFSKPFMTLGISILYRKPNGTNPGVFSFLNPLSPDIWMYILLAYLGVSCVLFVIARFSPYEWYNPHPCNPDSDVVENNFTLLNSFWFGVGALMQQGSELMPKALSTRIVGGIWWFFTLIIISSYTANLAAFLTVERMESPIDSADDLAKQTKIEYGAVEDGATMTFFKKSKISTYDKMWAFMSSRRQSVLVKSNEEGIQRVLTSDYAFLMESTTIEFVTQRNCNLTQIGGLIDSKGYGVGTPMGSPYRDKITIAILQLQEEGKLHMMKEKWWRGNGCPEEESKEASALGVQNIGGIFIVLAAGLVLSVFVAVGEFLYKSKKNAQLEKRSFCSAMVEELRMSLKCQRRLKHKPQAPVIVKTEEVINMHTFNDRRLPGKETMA
Series [2] deals with GluN1/GluN2C (Rattus norvegicus, UniProt P35439+Q00961). The series is described as above. The format is cell-based.
Series [3] is described as follows: Stability of potentiator activity of compound solution. The format is physicochemical.
Series [4] has as its system GluN2C/D-containing NMDA receptors. The following applies: cited from earlier work.
The target in series [5] is GluN1/GluN2C (Rattus norvegicus, UniProt Q00961). The experiment in a line: Two electrode voltage clamp recordings, Xenopus laevis oocytes. The class given is cell-based. Conditions: for activity at GluN1/GluN2C: 100 µM glutamate, 30 µM glycine.
For a further series, the target named is GluN1/GluN2D (Rattus norvegicus, UniProt Q62645). The series is described as above. The format is cell-based. Conditions: for activity at GluN1/GluN2D: 100 µM glutamate, 30 µM glycine.
GluN1/GluN2D, sequence (Q62645 28-1323, other chains not shown): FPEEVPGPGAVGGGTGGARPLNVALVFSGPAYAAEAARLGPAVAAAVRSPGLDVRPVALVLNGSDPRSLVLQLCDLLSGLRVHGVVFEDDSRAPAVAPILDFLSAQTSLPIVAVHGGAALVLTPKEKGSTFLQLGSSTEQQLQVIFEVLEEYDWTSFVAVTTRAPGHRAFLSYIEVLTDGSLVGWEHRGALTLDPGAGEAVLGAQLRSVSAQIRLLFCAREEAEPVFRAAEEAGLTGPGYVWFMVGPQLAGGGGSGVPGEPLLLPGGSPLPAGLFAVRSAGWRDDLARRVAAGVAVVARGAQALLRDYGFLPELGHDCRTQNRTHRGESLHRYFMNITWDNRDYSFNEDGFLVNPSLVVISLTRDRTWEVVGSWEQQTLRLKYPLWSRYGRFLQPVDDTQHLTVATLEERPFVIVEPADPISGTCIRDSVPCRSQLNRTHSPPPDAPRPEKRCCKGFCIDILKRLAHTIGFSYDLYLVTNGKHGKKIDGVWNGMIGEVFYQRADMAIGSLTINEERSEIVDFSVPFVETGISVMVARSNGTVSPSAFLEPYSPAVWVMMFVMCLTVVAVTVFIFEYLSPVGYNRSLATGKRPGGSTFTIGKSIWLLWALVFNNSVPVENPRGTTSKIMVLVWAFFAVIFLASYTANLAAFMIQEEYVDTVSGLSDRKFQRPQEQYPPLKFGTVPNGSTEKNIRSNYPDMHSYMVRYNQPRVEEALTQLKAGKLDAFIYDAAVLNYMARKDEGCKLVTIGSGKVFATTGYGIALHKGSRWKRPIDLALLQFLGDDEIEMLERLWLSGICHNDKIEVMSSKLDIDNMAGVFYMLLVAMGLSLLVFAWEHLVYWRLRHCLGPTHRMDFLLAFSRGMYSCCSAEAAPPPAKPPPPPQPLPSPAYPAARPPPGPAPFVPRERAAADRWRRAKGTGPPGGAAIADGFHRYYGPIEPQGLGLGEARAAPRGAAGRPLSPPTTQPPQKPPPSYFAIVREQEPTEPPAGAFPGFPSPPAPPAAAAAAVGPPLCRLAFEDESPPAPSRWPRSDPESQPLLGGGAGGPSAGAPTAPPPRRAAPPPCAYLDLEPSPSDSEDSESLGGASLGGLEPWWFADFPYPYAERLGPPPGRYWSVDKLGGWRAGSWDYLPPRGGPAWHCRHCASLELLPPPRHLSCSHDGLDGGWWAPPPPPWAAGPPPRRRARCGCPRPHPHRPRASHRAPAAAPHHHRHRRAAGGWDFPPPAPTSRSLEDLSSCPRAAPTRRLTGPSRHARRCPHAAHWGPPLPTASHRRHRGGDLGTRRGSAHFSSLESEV
Another series deals with sigma receptor σ2. The class given is binding. Conditions: 5 µM compound 83; n=4.
Series [6] relates to peripheral benzodiazepine site. The class given is binding. The following applies: 5 µM compound 83; n=4.
In a further series the test system is sigma receptor σ1. The class given is binding. Conditions: 5 µM compound 83; n=4.
Series [7] has as its system GABA, glycine, serotonin, nicotinic acetylcholine, AMPA, kainate, and purinergic receptors. The format is cell-based.
Series [8] has as its system brain benzodiazepine site. The format is binding. Conditions: 5 µM compound 83; n=4.
The target of another series is κ opioid receptors (Homo sapiens, UniProt P41145). The class given is binding. The following applies: 5 µM compound 83.
κ opioid receptors, sequence (P41145 whole entry): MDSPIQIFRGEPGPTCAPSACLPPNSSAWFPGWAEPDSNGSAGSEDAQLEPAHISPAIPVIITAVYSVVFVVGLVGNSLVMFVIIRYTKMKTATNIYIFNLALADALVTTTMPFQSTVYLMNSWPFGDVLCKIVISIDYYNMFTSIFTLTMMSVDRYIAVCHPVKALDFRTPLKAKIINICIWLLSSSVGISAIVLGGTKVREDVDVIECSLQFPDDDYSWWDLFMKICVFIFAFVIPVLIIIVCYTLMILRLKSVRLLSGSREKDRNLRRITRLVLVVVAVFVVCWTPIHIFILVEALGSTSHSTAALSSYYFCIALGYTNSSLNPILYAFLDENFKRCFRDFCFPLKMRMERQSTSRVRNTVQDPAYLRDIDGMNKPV
Setting [9] is: maximally effective concentrations of glutamate and glycine.
The mark [10] stands for this setting: 10 µM compound co-applied with 100 µM glutamate and 30 µM glycine.

Consider `COc1ccc(OC[C@@H]2c3cc(OC)c(OC)cc3CCN2C(=O)c2cccc(Cl)c2)cc1` [2-S, (S)-(3-chlorophenyl)(6,7-dimethoxy-1-((4-methoxyphenoxy)methyl)-3,4-dihydroisoquinolin-2(1H)-yl)methanone], for which the “effect on GluN1/GluN2B responses” value on GluN1/GluN2B was “no effect”. In addition, on GluN1/GluN2A, the “effect on GluN1/GluN2A responses” value is “no effect”.

Consider `COc1ccc(OCC2c3cc(OC)c(OC)cc3CCN2C(=O)c2ccccc2)cc1` (centres unmarked) [compound 1, (6,7-dimethoxy-1-((4-methoxyphenoxy)methyl)-3,4-dihydroisoquinolin-2(1H)-yl)(phenyl)methanone], for which the “effect on homomeric GluA1 responses” value on GluA1 is “no effects”. Also, the “enhancement of response of GluN2C/D-containing NMDA receptors” value in series [1] (setting [9]) worked out at 1.5 fold. In [1] (without co-agonists), the “agonist activity on their own” value is recorded as “no agonist activity”. Besides, on GluK2, the “effect on GluK2-mediated currents” value was “no effect”.

With `COc1ccc(OCC2c3cc(OC)c(OC)cc3CCN2C(=O)c2cccc(Cl)c2)cc1` (centres unmarked) [compound 2], the EC50 on GluN1/GluN2C [2] was 4.6 µM; in series [1] (setting [9]), 4.6 to 5 µM; in [4] (read-out: reported EC50), 3 µM. Further, on GluA1, the “effect on homomeric GluA1 responses” value was “no effects”. For the same compound, the “activity of solution after 24 hours” value in series [3] (24 hours after making the solution) is on record as “no activity”. Also, in [3] (compound solutions tested on GluN1/GluN2C in BHK cells at different time points), the “activity (potency and efficacy) retained without loss until” value is 6 h. The “effect on GluK2-mediated currents” value at GluK2 is reported as “no effect”. Moreover, the “enhancement of receptor responses” value in series [4] is reported as “less than 2 fold”.

With `COc1cc2c(cc1OC)CN(C(=O)c1ccccc1)CC2` [compound 5, (6,7-dimethoxy-3,4-dihydroisoquinolin-2(1H)-yl)(phenyl)methanone], the “effect on GluN1/GluN2B responses” value at GluN1/GluN2B is “inactive”. Besides, the “activity at GluN1/GluN2C” value on GluN1/GluN2C [5] was “inactive”. For the same compound, on GluN1/GluN2D, the “activity at GluN1/GluN2D” value is “inactive”. For the same compound, on GluA1, the “effect on homomeric GluA1 responses” value was “no effects”. Further, on GluN1/GluN2A, the “effect on GluN1/GluN2A responses” value is “inactive”.

Consider `COc1cc2c(cc1OC)CN(C(=O)c1cccc(Cl)c1)CC2` [compound 6, (3-chlorophenyl)(6,7-dimethoxy-3,4-dihydroisoquinolin-2(1H)-yl)methanone], for which the “effect on GluN1/GluN2B responses” value on GluN1/GluN2B was “inactive”. Also, the “activity at GluN1/GluN2C” value on GluN1/GluN2C [5] was “inactive”. In addition, the “activity at GluN1/GluN2D” value at GluN1/GluN2D was “inactive”. Further, the “effect on GluN1/GluN2A responses” value at GluN1/GluN2A is “inactive”.

Turning to `COc1cc2c(cc1OC)CN(C(=O)c1cccc(Br)c1)CC2` [compound 7, (3-bromophenyl)(6,7-dimethoxy-3,4-dihydroisoquinolin-2(1H)-yl)methanone], the “effect on GluN1/GluN2B responses” value at GluN1/GluN2B was “inactive”. At GluN1/GluN2C [5], the “activity at GluN1/GluN2C” value is “inactive”. The “activity at GluN1/GluN2D” value at GluN1/GluN2D is “inactive”. The “effect on GluN1/GluN2A responses” value on GluN1/GluN2A was “inactive”.

For the compound `COc1ccc(OCC2c3ccc(OCc4ccccc4)cc3CCN2C(=O)c2cccc(Br)c2)cc1` (centres unmarked) [compound 83, (6-(benzyloxy)-1-((4-methoxyphenoxy)methyl)-3,4-dihydroisoquinolin-2(1H)-yl)(3-bromophenyl)methanone], the “inhibition of ligand binding” value (in the series on sigma receptor σ2; in [6]; in the series on sigma receptor σ1; in series [8]) was “less than 50%” throughout. In series [1] (setting [9]), the EC50 was in the range of 0.3 to 0.4 µM. The “selectivity for GluN2C or GluN2D compared to these receptors” value in series [7] is reported as “approximately 100 fold”. Further, the “inhibition of off-target receptors” value in [7] (3 µM compound 83) is given as “less than 10%”. The “potentiation of off-target receptors” value in series [7] (3 µM compound 83) is on record as < 5%. At κ opioid receptors, the “initial screen at κ opioid receptors” value is on record as “significant inhibition”.

With `COc1ccc(CCC2c3cc(OC)c(OC)cc3CCN2C(=O)c2cccc(Br)c2)cc1` (centres unmarked) [compound 162, (3-bromophenyl)(6,7-dimethoxy-1-(4-methoxyphenethyl)-3,4-dihydroisoquinolin-2(1H)-yl)methanone], the “effect on homomeric GluA1 responses” value at GluA1 is “no effects”.

As for `COc1ccc(OCC2c3cc(OC)c(OC)cc3CCN2C(=O)c2cccc(Br)c2)cc1` (centres unmarked) [compound 190], the “effect on homomeric GluA1 responses” value at GluA1 was “no effects”. Moreover, at GluK2, the “effect on GluK2-mediated currents” value is reported as “no effect”.

`COc1ccc(OCC2c3cc(OC)c(OC)cc3CCN2C(=O)c2cccc(F)c2)cc1` (centres unmarked) [compound 197]: the “effect on homomeric GluA1 responses” value at GluA1 was “no effects”. The “effect on GluK2-mediated currents” value at GluK2 is reported as “no effect”.

For the compound `COc1ccc(OCC2c3cc(OC)c(OC)cc3CCN2C(=O)c2cccs2)cc1` (centres unmarked) [compound 203], the “activity at GluN1/GluN2C” value at GluN1/GluN2C [5] is reported as “weak activity”. Moreover, at GluN1/GluN2D, the “activity at GluN1/GluN2D” value is listed as “no or minimal potentiating effects”.

For the compound `COC(=O)c1ccc(OCC2c3cc(OC)c(OC)cc3CCN2C(=O)c2cccc(Br)c2)cc1` (centres unmarked) [compound 207], the “activity at GluN1/GluN2C” value on GluN1/GluN2C [5] is “weakly active”.

“(1-((4-(benzyloxy)phenoxy)methyl)-6,7-dimethoxy-3,4-dihydroisoquinolin-2(1H)-yl)(3-chlorophenyl)methanone [compound 109]”: the “I10 µM / ICONTROL (mean ± SEM, %) GluN2C” value at GluN1/GluN2C [5] (setting [10]) came to 93 ± 1.6%. In addition, the “I10 µM / ICONTROL (mean ± SEM, %) GluN2D” value on GluN1/GluN2D (setting [10]) amounted to 93 ± 2.5%. For the same compound, the “activity on GluN2C- or GluN2D-containing receptors” value in series [1] was “no detectable activity”.
